The values below come from US7928233B2, “Spiroindolinone pyridine derivatives” (Hoffmann-La Roche Inc., priority 2009, dated 2011).

The target of the assay is interaction between p53 and MDM2 proteins (recombinant GST-tagged MDM2 / p53 peptide) (Homo sapiens, UniProt Q00987). Nature of the assay: HTRF assay of inhibition of p53-MDM2 interaction. Type of assay: binding. As to conditions: 0.02% BSA; HTRF GST-MDM2 / biotinylated p53 peptide. How it is done: The ability of the compounds to inhibit the interaction between p53 and MDM2 proteins was measured by an HTRF (homogeneous time-resolved fluorescence) assay in which recombinant GST-tagged MDM2 binds to a peptide that resembles the MDM2-interacting region of p53 (Lane et al.). Binding of GST-MDM2 protein and p53-peptide (biotinylated on its N-terminal end) is registered by the FRET (fluorescence resonance energy transfer) between Europium (Eu)-labeled anti-GST antibody and streptavidin-conjugated Allophycocyanin (APC).
interaction between p53 and MDM2 proteins (recombinant GST-tagged MDM2 / p53 peptide), sequence (Q00987 whole entry): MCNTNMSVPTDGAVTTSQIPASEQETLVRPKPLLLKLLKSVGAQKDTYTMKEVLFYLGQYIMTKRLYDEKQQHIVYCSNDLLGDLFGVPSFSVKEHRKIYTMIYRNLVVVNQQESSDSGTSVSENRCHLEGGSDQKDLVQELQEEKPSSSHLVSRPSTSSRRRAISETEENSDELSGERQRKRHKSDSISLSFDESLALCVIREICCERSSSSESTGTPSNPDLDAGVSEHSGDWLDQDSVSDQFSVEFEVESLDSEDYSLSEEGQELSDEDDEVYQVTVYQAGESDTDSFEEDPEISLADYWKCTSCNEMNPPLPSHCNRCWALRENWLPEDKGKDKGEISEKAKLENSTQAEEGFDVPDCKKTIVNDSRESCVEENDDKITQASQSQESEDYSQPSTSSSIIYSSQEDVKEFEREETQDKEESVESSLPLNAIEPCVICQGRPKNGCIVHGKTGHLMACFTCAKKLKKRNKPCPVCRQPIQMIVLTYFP
Test is performed in black flat-bottom 384-well plates (Costar) in a total volume of 40 uL containing: 90 nM biotinylate peptide, 160 ng/ml GST-MDM2, 20 nM streptavidin-APC (PerkinElmerWallac), 2 nM Eu-labeled anti-GST-antibody (PerkinElmerWallac), 0.2% bovine serum albumin (BSA), 1 mM dithiothreitol (DTT) and 20 mM Tris-borate saline (TBS) buffer as follows: Add 10 uL of GST-MDM2 (640 ng/ml working solution) in reaction buffer to each well. Add 10 uL diluted compounds (1:5 dilution in reaction buffer) to each well, mix by shaking Add 20 uL biotinylated p53 peptide (180 nM working solution) in reaction buffer to each well and mix on shaker. Incubate at 37° C. for 1 h. Add 20 uL streptavidin-APC and Eu-anti-GST antibody mixture (6 nM Eu-anti-GST and 60 nM streptavidin-APC working solution) in TBS buffer with 0.2% BSA, shake at room temperature for 30 minutes and read using a TRF-capable plate reader at 665 and 615 nm (Victor 5, Perkin ElmerWallac). If not specified, the reagents were purchased from Sigma Chemical Co.
Take `Cc1ccc(Cl)cc1[C@@H]1NC(=O)C[C@H](c2cc(Cl)cnc2OC(C)(C)C(=O)O)[C@@]12C(=O)Nc1cc(Cl)ccc12` [Example 15, chiral (2′S, 3S, 4′R)-6-chloro-4′-[5-chloro-2-(1-hydroxycarbonyl-1-methyl-ethoxy)-pyridin-3-yl]-2′-(5-chloro-2-methyl-phenyl) spiro[3H-indole-3,3′-piperidine]-2,6′(1H)-dione]: the IC50 was found to be 56 nM.
In the case of `Cc1ccc(F)cc1[C@@H]1NC(=O)C[C@H](c2cc(Cl)cnc2OC(C)(C)C(=O)NS(C)(=O)=O)[C@@]12C(=O)Nc1cc(Cl)ccc12` [Example 11, chiral (2′S, 3S, 4′R)-4′-[5-chloro-2-(2-methanesulfonylamino-1,1-methyl-2-oxo-ethoxy)-pyridin-3-yl]-6-chloro-2′-(5-fluoro-2-methyl-phenyl) spiro[3H-indole-3,3′-piperidine]-2,6′(1H)-dione] it was 135 nM; in that of `Cc1ccc(F)cc1[C@@H]1NC(=O)C[C@H](c2cc(Cl)cnc2OC(C)(C)C(=O)O)[C@@]12C(=O)Nc1cc(Cl)ccc12` [Example 9, chiral (2′S, 3S, 4′R)-6-chloro-4′-[5-chloro-2-(1-hydroxycarbonyl-1-methyl-ethoxy)-pyridin-3-yl]-2′-(5-fluoro-2-methyl-phenyl) spiro[3H-indole-3,3′-piperidine]-2,6′(1H)-dione], 108 nM.
In the case of `Cc1ccc(F)cc1[C@@H]1NC(=O)C[C@H](c2cc(Cl)cnc2OC(C)(C)C(=O)O)[C@@]12C(=O)Nc1cc(Cl)ccc12` (racemic) [Example 8, racemic (2′S, 3S, 4′R)-6-chloro-4′-[5-chloro-2-(1-hydroxycarbonyl-1-methyl-ethoxy)-pyridin-3-yl]-2′-(5-fluoro-2-methyl-phenyl) spiro[3H-indole-3,3′-piperidine]-2,6′(1H)-dione] it was 145 nM.
